Data as given in the supplement of paper PMC11208160.

Assay: recombinant UMI read abundance after kanamycin selection (control-corrected) (log10(CPM+1)); higher = more efficient recombination; extreme values may be limits of the assay; sequences stand for … in AGTGCAGAGAAAATCGGCCAGTTTTCTCTGCCTGCAGTCCGCATGCCGTGGGACCCCTTGGGTTCTAACCTGTTGCCTAGATTTATGCAGCGGACTGCCTTTCTCCCAAAGTGATAAACCGG…AGGTTGGTTTCACT; site = the 11-nt donor
Method in brief: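 Reported values are log10(CPM+1) from a pooled Escherichia coli screen of donor and donor-binding-loop pairs for the IS621 bridge recombinase. Selection used IPTG (0.07 mM) plus kanamycin, against unselected plating, each in two replicates. Recombinant UMIs were amplified across the donor–target junction, sequenced, converted to CPM, averaged over replicates and scaled by control-derived factors.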
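Further: IS621 bridge recombinase in Escherichia coli cells against a fixed T5 target plasmid.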

| Sequence | recombinant UMI read abundance (log10) |
| --- | --- |
| TGCCTTTCATGGACCGGTTTTCCCGGTAATCCGTATTTGAC (site GGCCTTTCTGT) | 0 |
| TGCCTTTCATGGACCGGTTTTCCCGGTAATCCGTATTTGAC (site TGCCTTTCTGT) | 0 |
| TGCGGAACATGGACCGGTTTTCCCGGTAATCCGTATTTGTT (site TGCGGAACTAA) | 0.718 |
| TGCGGCCCATGGACCGGTTTTCCCGGTAATCCGTATTTGCG (site TGCGGCCCTCG) | 0.0374 |
| TGCGGTACATGGACCGGTTTTCCCGGTAATCCGTATTTGAG (site TGCGGTACTCT) | 0.757 |
| TGCGGTCCATGGACCGGTTTTCCCGGTAATCCGTATTTGAA (site TGCGGTCCTTT) | 0 |
| TGCGGTCCATGGACCGGTTTTCCCGGTAATCCGTATTTGAG (site TGCGGTCCTCT) | 0.0157 |
| TGCTAAGCATGGACCGGTTTTCCCGGTAATCCGTATTTGGT (site TGCTAAGCTAC) | 0.906 |
| TGCTAAGCATGGACCGGTTTTCCCGGTAATCCGTATTTGGT (site TGCTACGCTAC) | 0 |
| TGCTAAGCATGGACCGGTTTTCCCGGTAATCCGTATTTGGT (site TGCTAGGCTAC) | 0.0128 |
| TGCTAAGCATGGACCGGTTTTCCCGGTAATCCGTATTTGGT (site TGCTATGCTAC) | 0.0152 |
| TGCTAGACATGGACCGGTTTTCCCGGTAATCCGTATTTGGT (site TGCTAGACTAC) | 0.462 |
| TGCTAGACATGGACCGGTTTTCCCGGTAATCCGTATTTGGT (site TGCTAGCCTAC) | 0.00952 |
| TGCTAGACATGGACCGGTTTTCCCGGTAATCCGTATTTGGT (site TGCTAGGCTAC) | 0.0111 |
| TGCTAGACATGGACCGGTTTTCCCGGTAATCCGTATTTGGT (site TGCTAGTCTAC) | 0.357 |
| TGCTAGGCATGGACCGGTTTTCCCGGTAATCCGTATTTGGT (site AGCTAGGCTAC) | 0.0183 |
| TGCTAGGCATGGACCGGTTTTCCCGGTAATCCGTATTTGGT (site CGCTAGGCTAC) | 0.019 |
| TGCTAGGCATGGACCGGTTTTCCCGGTAATCCGTATTTGGT (site GGCTAGGCTAC) | 0.0224 |
| TGCTAGGCATGGACCGGTTTTCCCGGTAATCCGTATTTGGT (site TACTAGGCTAC) | 0.00634 |
| TGCTAGGCATGGACCGGTTTTCCCGGTAATCCGTATTTGGT (site TCCTAGGCTAC) | 0.0105 |
| TGCTAGGCATGGACCGGTTTTCCCGGTAATCCGTATTTGGT (site TGATAGGCTAC) | 0.00571 |
| TGCTAGGCATGGACCGGTTTTCCCGGTAATCCGTATTTGGT (site TGCAAGGCTAC) | 0 |
| TGCTAGGCATGGACCGGTTTTCCCGGTAATCCGTATTTGGT (site TGCCAGGCTAC) | 0.00869 |

| Sequence | recombinant UMI read abundance (log10) |
| --- | --- |
| TGCTAGGCATGGACCGGTTTTCCCGGTAATCCGTATTTGGT (site TGCGAGGCTAC) | 0.00468 |
| TGCTAGGCATGGACCGGTTTTCCCGGTAATCCGTATTTGGT (site TGCTAAGCTAC) | 0.0704 |
| TGCTAGGCATGGACCGGTTTTCCCGGTAATCCGTATTTGGT (site TGCTACGCTAC) | 0.0185 |
| TGCTAGGCATGGACCGGTTTTCCCGGTAATCCGTATTTGGT (site TGCTAGACTAC) | 0.0977 |
| TGCTAGGCATGGACCGGTTTTCCCGGTAATCCGTATTTGGT (site TGCTAGCCTAC) | 0.0225 |
| TGCTAGGCATGGACCGGTTTTCCCGGTAATCCGTATTTGGT (site TGCTAGGCTAA) | 0.0155 |
| TGCTAGGCATGGACCGGTTTTCCCGGTAATCCGTATTTGGT (site TGCTAGGCTAC) | 0.108 |
| TGCTAGGCATGGACCGGTTTTCCCGGTAATCCGTATTTGGT (site TGCTAGGCTAG) | 0.0108 |
| TGCTAGGCATGGACCGGTTTTCCCGGTAATCCGTATTTGGT (site TGCTAGGCTAT) | 0.0134 |
| TGCTAGGCATGGACCGGTTTTCCCGGTAATCCGTATTTGGT (site TGCTAGGCTCC) | 0.0152 |
| TGCTAGGCATGGACCGGTTTTCCCGGTAATCCGTATTTGGT (site TGCTAGGCTGC) | 0.0103 |
| TGCTAGGCATGGACCGGTTTTCCCGGTAATCCGTATTTGGT (site TGCTAGGCTTC) | 0.0129 |
| TGCTAGGCATGGACCGGTTTTCCCGGTAATCCGTATTTGGT (site TGCTAGTCTAC) | 0.00544 |
| TGCTAGGCATGGACCGGTTTTCCCGGTAATCCGTATTTGGT (site TGCTATGCTAC) | 0.00951 |
| TGCTAGGCATGGACCGGTTTTCCCGGTAATCCGTATTTGGT (site TGCTCGGCTAC) | 0.0253 |
| TGCTAGGCATGGACCGGTTTTCCCGGTAATCCGTATTTGGT (site TGCTGGGCTAC) | 0.0136 |
| TGCTAGGCATGGACCGGTTTTCCCGGTAATCCGTATTTGGT (site TGCTTGGCTAC) | 0.0132 |
| TGCTAGGCATGGACCGGTTTTCCCGGTAATCCGTATTTGGT (site TGGTAGGCTAC) | 0.00942 |
| TGCTAGGCATGGACCGGTTTTCCCGGTAATCCGTATTTGGT (site TGTTAGGCTAC) | 0.026 |
| TGCTAGGCATGGACCGGTTTTCCCGGTAATCCGTATTTGGT (site TTCTAGGCTAC) | 0.0121 |
| TGCTAGTCATGGACCGGTTTTCCCGGTAATCCGTATTTGGT (site TGCTAGACTAC) | 0.00505 |
| TGCTAGTCATGGACCGGTTTTCCCGGTAATCCGTATTTGGT (site TGCTAGCCTAC) | 0.0102 |
| TGCTAGTCATGGACCGGTTTTCCCGGTAATCCGTATTTGGT (site TGCTAGGCTAC) | 0.00963 |

| Sequence | recombinant UMI read abundance (log10) |
| --- | --- |
| TGCTAGTCATGGACCGGTTTTCCCGGTAATCCGTATTTGGT (site TGCTAGTCTAC) | 1.07 |
| TGCTCAGCATGGACCGGTTTTCCCGGTAATCCGTATTTGGG (site AGCTCAGCTCC) | 0.0267 |
| TGCTCAGCATGGACCGGTTTTCCCGGTAATCCGTATTTGGG (site CGCTCAGCTCC) | 0.0151 |
| TGCTCAGCATGGACCGGTTTTCCCGGTAATCCGTATTTGGG (site GGCTCAGCTCC) | 0.0391 |
| TGCTCAGCATGGACCGGTTTTCCCGGTAATCCGTATTTGGG (site TGCTCAGCTCC) | 0.00921 |
| TGCTCGGCATGGACCGGTTTTCCCGGTAATCCGTATTTGAT (site TGCTCGGCTAT) | 0.54 |
| TGCTCGGCATGGACCGGTTTTCCCGGTAATCCGTATTTGGT (site TGCTAGGCTAC) | 0.00732 |
| TGCTCGGCATGGACCGGTTTTCCCGGTAATCCGTATTTGGT (site TGCTCGGCTAC) | 0.0236 |
| TGCTCGGCATGGACCGGTTTTCCCGGTAATCCGTATTTGGT (site TGCTGGGCTAC) | 0.00677 |
| TGCTCGGCATGGACCGGTTTTCCCGGTAATCCGTATTTGGT (site TGCTTGGCTAC) | 0.00594 |
| TGCTGAGCATGGACCGGTTTTCCCGGTAATCCGTATTTGAT (site TGCTGAGCTAT) | 1.36 |
| TGCTTCGCATGGACCGGTTTTCCCGGTAATCCGTATTTGTC (site TGCTTCGCTGA) | 0.542 |
| TGGAATACATGGACCGGTTTTCCCGGTAATCCGTATTTGCA (site TAGAATACTTG) | 0.91 |
| TGGAATACATGGACCGGTTTTCCCGGTAATCCGTATTTGCA (site TCGAATACTTG) | 0.55 |
| TGGAATACATGGACCGGTTTTCCCGGTAATCCGTATTTGCA (site TGGAATACTTG) | 1.86 |
| TGGAATACATGGACCGGTTTTCCCGGTAATCCGTATTTGCA (site TTGAATACTTG) | 0.00597 |
| TGGAATCCATGGACCGGTTTTCCCGGTAATCCGTATTTGTG (site CGGAATCCTAA) | 0.00353 |
| TGGAATCCATGGACCGGTTTTCCCGGTAATCCGTATTTGTG (site TGGAATCCTCA) | 0.604 |
| TGGAATGCATGGACCGGTTTTCCCGGTAATCCGTATTTGTT (site CGGAATCCTAA) | 0.00325 |
| TGGAATGCATGGACCGGTTTTCCCGGTAATCCGTATTTGTT (site TGGAATGCTAA) | 1.71 |
| TGGACACCATGGACCGGTTTTCCCGGTAATCCGTATTTGAC (site TGAACACCTGT) | 0 |
| TGGACACCATGGACCGGTTTTCCCGGTAATCCGTATTTGAC (site TGCACACCTGT) | 0 |
